Reference: patent US12377104B1, “Methods for treating a fatty liver disease” (Madrigal Pharmaceuticals, Inc., priority 2024, dated 2025)

Experiments:
[1] = MAESTRO-NASH: metabolic factors (heart rate, body weight, blood pressure) at week 52; type: in vivo, human; details: for Body weight, LS mean % CFB / Body weight, LS mean % CFB difference from PBO / DBP, LS mean % CFB / DBP, LS mean % CFB difference from PBO / Glucose, LS mean % CFB / Glucose, LS mean % CFB difference from PBO / HOMA-IR, LS mean % CFB / HOMA-IR, LS mean % CFB difference from PBO / HbA1c, LS mean % CFB / HbA1c, LS mean % CFB difference from PBO / Heart rate (electrocardiogram), LS mean % CFB / Heart rate (electrocardiogram), LS mean % CFB difference from PBO / Insulin, LS mean % CFB / Insulin, LS mean % CFB difference from PBO / SBP, LS mean % CFB / SBP, LS mean % CFB difference from PBO: week 52
NASH patients = assay: Exposure-response: probability of NASH resolution or fibrosis response by Cave,ss; type: in vivo, human
Method: Various body weight cutoffs for dosing were evaluated.
Study median body weight was 100 kg. […] Study median BMI was 35 kg/m^2.

[2] = MAESTRO-NASH: bone mineral density T score and fractures; design: species or system human; details: in vivo

CC(C)c1cc(Oc2c(Cl)cc(-n3nc(C#N)c(=O)[nH]c3=O)cc2Cl)n[nH]c1=O [Resmetirom, 2-(3,5-dichloro-4-((5-isopropyl-6-oxo-1,6-dihydropyridazin-3-yl)oxy)phenyl)-3,5-dioxo-2,3,4,5-tetrahydro-1,2,4-triazine-6-carbonitrile]
Body weight, LS mean % CFB ([1]; 80 mg): −1.2%
Body weight, LS mean % CFB difference from PBO ([1]; 80 mg): 0.35%
DBP, LS mean % CFB ([1]; 80 mg): −1.6%
DBP, LS mean % CFB difference from PBO ([1]; 80 mg): −1.5%
Glucose, LS mean % CFB ([1]; 80 mg): 0.72%
Glucose, LS mean % CFB difference from PBO ([1]; 80 mg): 2.9%
HOMA-IR, LS mean % CFB ([1]; 80 mg): 9.1%
HOMA-IR, LS mean % CFB difference from PBO ([1]; 80 mg): −5.3%
HbA1c, LS mean % CFB ([1]; 80 mg): 1.7%
HbA1c, LS mean % CFB difference from PBO ([1]; 80 mg): 0.19%
Heart rate (electrocardiogram), LS mean % CFB ([1]; 80 mg): −1.7%
Heart rate (electrocardiogram), LS mean % CFB difference from PBO ([1]; 80 mg): −1.5%
Insulin, LS mean % CFB ([1]; 80 mg): 2.8%
Insulin, LS mean % CFB difference from PBO ([1]; 80 mg): 2.3%
SBP, LS mean % CFB ([1]; 80 mg): −1.9%
SBP, LS mean % CFB difference from PBO ([1]; 80 mg): 2.7%
Body weight, LS mean % CFB ([1]; 100 mg): −1.8%
Body weight, LS mean % CFB difference from PBO ([1]; 100 mg): −0.88%
DBP, LS mean % CFB ([1]; 100 mg): −2.0%
DBP, LS mean % CFB difference from PBO ([1]; 100 mg): −1.9%
Glucose, LS mean % CFB ([1]; 100 mg): −3.4%
Glucose, LS mean % CFB difference from PBO ([1]; 100 mg): 5.6%
HOMA-IR, LS mean % CFB ([1]; 100 mg): 3.4%
HOMA-IR, LS mean % CFB difference from PBO ([1]; 100 mg): 11.0%
HbA1c, LS mean % CFB ([1]; 100 mg): 1.5%
HbA1c, LS mean % CFB difference from PBO ([1]; 100 mg): 0.05%
Heart rate (electrocardiogram), LS mean % CFB ([1]; 100 mg): 2.6%
Heart rate (electrocardiogram), LS mean % CFB difference from PBO ([1]; 100 mg): −2.4%
Insulin, LS mean % CFB ([1]; 100 mg): 3.3%
Insulin, LS mean % CFB difference from PBO ([1]; 100 mg): 1.8%
SBP, LS mean % CFB ([1]; 100 mg): 2.1%
SBP, LS mean % CFB difference from PBO ([1]; 100 mg): 2.9%
blood pressure ([1]; in vivo): slightly reduced
effect on heart rate or body weight ([1]; in vivo): no effect on heart rate or body weight
Estimated Probability of response (NASH resolution or fibrosis response) (NASH patients; Cave,ss Q1: [20-155)): 33.6%
Observed Probability of response (NASH resolution or fibrosis response) (NASH patients; Cave,ss Q1: [20-155)): 45.5%
Estimated Probability of response (NASH resolution or fibrosis response) (NASH patients; Cave,ss Q2: [155-219)): 37.3%
Observed Probability of response (NASH resolution or fibrosis response) (NASH patients; Cave,ss Q2: [155-219)): 44.0%
Estimated Probability of response (NASH resolution or fibrosis response) (NASH patients; Cave,ss Q3: [219-321)): 41.9%
Observed Probability of response (NASH resolution or fibrosis response) (NASH patients; Cave,ss Q3: [219-321)): 41.8%
Estimated Probability of response (NASH resolution or fibrosis response) (NASH patients; Cave,ss Q4: [321-1326]): 56.2%
Observed Probability of response (NASH resolution or fibrosis response) (NASH patients; Cave,ss Q4: [321-1326]): 55.0%
Mean Cave,ss (NASH patients; Q1: [20-155)): 120 ng/mL
Mean Cave,ss (NASH patients; Q2: [155-219)): 186 ng/mL
Mean Cave,ss (NASH patients; Q3: [219-321)): 263 ng/mL
Mean Cave,ss (NASH patients; Q4: [321-1326]): 495 ng/mL
fractures and bone mineral density T scores [2]: no increases in fractures or substantial changes in bone mineral density T scores
